Numbers after ± are expanded uncertainties.
Assay: mn = molality of the nth substance listed, in mol/kg
Settings: Liquid, Vibrating tube method

[Br-].[Li+] [lithium bromide] + CCO
mass density (313.16 K, 69943 kPa, m1 = 2.272): 954.83 ± 1.9 kg/m3
mass density (313.16 K, 70035 kPa, m1 = 0.2335): 838.62 ± 1.8 kg/m3
mass density (313.16 K, 80024 kPa, m1 = 2.833): 989.48 ± 2 kg/m3
mass density (313.16 K, 99649 kPa, m1 = 1.462): 925.34 ± 1.9 kg/m3
mass density (313.17 K, 1995 kPa, m1 = 3.368): 968.15 ± 1.9 kg/m3
mass density (313.17 K, 5344 kPa, m1 = 3.368): 970.84 ± 1.9 kg/m3
mass density (313.17 K, 10286 kPa, m1 = 3.368): 974.66 ± 1.9 kg/m3
mass density (313.17 K, 19807 kPa, m1 = 3.368): 981.61 ± 2 kg/m3
mass density (313.17 K, 29957 kPa, m1 = 3.368): 988.47 ± 2 kg/m3
mass density (313.17 K, 40021 kPa, m1 = 2.833): 967.43 ± 1.9 kg/m3
mass density (313.17 K, 40159 kPa, m1 = 3.368): 994.86 ± 2 kg/m3
mass density (313.17 K, 49914 kPa, m1 = 3.368): 1000.58 ± 2 kg/m3
mass density (313.17 K, 80160 kPa, m1 = 2.272): 960.11 ± 1.9 kg/m3
mass density (313.17 K, 89963 kPa, m1 = 2.272): 965.03 ± 1.9 kg/m3
mass density (313.17 K, 99603 kPa, m1 = 3.368): 1026.1 ± 2.1 kg/m3
mass density (313.18 K, 59836 kPa, m1 = 3.368): 1006.06 ± 2 kg/m3
mass density (313.18 K, 69925 kPa, m1 = 3.368): 1011.36 ± 2 kg/m3
mass density (313.18 K, 89986 kPa, m1 = 3.368): 1021.4 ± 2.1 kg/m3
mass density (313.18 K, 100029 kPa, m1 = 2.272): 969.91 ± 2 kg/m3
mass density (313.19 K, 1459 kPa, m1 = 0.5972): 812.65 ± 1.6 kg/m3
mass density (313.2 K, 79843 kPa, m1 = 3.368): 1016.39 ± 2 kg/m3
mass density (323.13 K, 5012 kPa, m1 = 0.2335): 784.23 ± 1.6 kg/m3
mass density (323.13 K, 79954 kPa, m1 = 0.5972): 859.95 ± 1.8 kg/m3
mass density (323.14 K, 10001 kPa, m1 = 0.2335): 788.63 ± 1.6 kg/m3
mass density (323.14 K, 19956 kPa, m1 = 2.833): 946.78 ± 1.9 kg/m3
mass density (323.14 K, 29926 kPa, m1 = 3.368): 981.06 ± 2 kg/m3
mass density (323.14 K, 39945 kPa, m1 = 2.272): 930.75 ± 1.9 kg/m3
mass density (323.14 K, 39954 kPa, m1 = 1.462): 885.66 ± 1.8 kg/m3
mass density (323.14 K, 49912 kPa, m1 = 0.2335): 819.58 ± 1.7 kg/m3
mass density (323.14 K, 69926 kPa, m1 = 2.833): 977.81 ± 2 kg/m3
mass density (323.14 K, 70002 kPa, m1 = 1.462): 904.07 ± 1.8 kg/m3
mass density (323.14 K, 70002 kPa, m1 = 3.368): 1004.85 ± 2 kg/m3
mass density (323.15 K, 1023 kPa, m1 = 2.833): 931.78 ± 1.9 kg/m3
mass density (323.15 K, 1026 kPa, m1 = 0.5972): 803.74 ± 1.6 kg/m3
mass density (323.15 K, 1032 kPa, m1 = 2.272): 901.6 ± 1.8 kg/m3
mass density (323.15 K, 1032 kPa, m1 = 3.368): 959.14 ± 1.9 kg/m3
mass density (323.15 K, 1035 kPa, m1 = 1.462): 855.48 ± 1.7 kg/m3
mass density (323.15 K, 1203 kPa, m1 = 0.9499): 825.48 ± 1.7 kg/m3
mass density (323.15 K, 2012 kPa, m1 = 0.2335): 781.53 ± 1.6 kg/m3
mass density (323.15 K, 5014 kPa, m1 = 3.368): 962.48 ± 1.9 kg/m3
mass density (323.15 K, 5021 kPa, m1 = 0.5972): 807.24 ± 1.6 kg/m3
mass density (323.15 K, 5021 kPa, m1 = 2.833): 935.15 ± 1.9 kg/m3
mass density (323.15 K, 5024 kPa, m1 = 2.272): 905.02 ± 1.8 kg/m3
mass density (323.15 K, 5106 kPa, m1 = 1.462): 859.08 ± 1.7 kg/m3
mass density (323.15 K, 5451 kPa, m1 = 0.9499): 829.11 ± 1.7 kg/m3
mass density (323.15 K, 9995 kPa, m1 = 2.833): 939.18 ± 1.9 kg/m3
mass density (323.15 K, 10002 kPa, m1 = 2.272): 909.13 ± 1.8 kg/m3
mass density (323.15 K, 10023 kPa, m1 = 0.5972): 811.53 ± 1.6 kg/m3
mass density (323.15 K, 10026 kPa, m1 = 0.9499): 832.95 ± 1.7 kg/m3
mass density (323.15 K, 10065 kPa, m1 = 1.462): 863.3 ± 1.7 kg/m3
mass density (323.15 K, 19957 kPa, m1 = 0.9499): 840.97 ± 1.7 kg/m3
mass density (323.15 K, 19957 kPa, m1 = 3.368): 974.07 ± 1.9 kg/m3
mass density (323.15 K, 20023 kPa, m1 = 0.2335): 797.12 ± 1.6 kg/m3
mass density (323.15 K, 29784 kPa, m1 = 2.833): 953.72 ± 1.9 kg/m3
mass density (323.15 K, 29928 kPa, m1 = 0.9499): 848.61 ± 1.7 kg/m3
mass density (323.15 K, 29975 kPa, m1 = 1.462): 878.73 ± 1.8 kg/m3
mass density (323.15 K, 29978 kPa, m1 = 0.5972): 827.54 ± 1.7 kg/m3
mass density (323.15 K, 29986 kPa, m1 = 2.272): 924.09 ± 1.9 kg/m3
mass density (323.15 K, 39784 kPa, m1 = 0.9499): 855.75 ± 1.7 kg/m3
mass density (323.15 K, 39926 kPa, m1 = 0.2335): 812.55 ± 1.7 kg/m3
mass density (323.15 K, 39984 kPa, m1 = 3.368): 987.61 ± 2 kg/m3
mass density (323.15 K, 49921 kPa, m1 = 2.272): 937 ± 1.9 kg/m3
mass density (323.15 K, 49926 kPa, m1 = 1.462): 892.13 ± 1.8 kg/m3
mass density (323.15 K, 49928 kPa, m1 = 0.9499): 862.68 ± 1.8 kg/m3
mass density (323.15 K, 50001 kPa, m1 = 0.5972): 841.84 ± 1.7 kg/m3
mass density (323.15 K, 50021 kPa, m1 = 2.833): 966.58 ± 1.9 kg/m3
mass density (323.15 K, 59924 kPa, m1 = 3.368): 999.37 ± 2 kg/m3
mass density (323.15 K, 59926 kPa, m1 = 0.2335): 825.76 ± 1.7 kg/m3
mass density (323.15 K, 59957 kPa, m1 = 1.462): 898.25 ± 1.8 kg/m3
mass density (323.15 K, 59986 kPa, m1 = 2.833): 972.34 ± 1.9 kg/m3
mass density (323.15 K, 60024 kPa, m1 = 0.9499): 869.15 ± 1.8 kg/m3
mass density (323.15 K, 69794 kPa, m1 = 0.9499): 875 ± 1.8 kg/m3
mass density (323.15 K, 69794 kPa, m1 = 2.272): 948.43 ± 1.9 kg/m3
mass density (323.15 K, 69923 kPa, m1 = 0.5972): 854.32 ± 1.8 kg/m3
mass density (323.15 K, 79923 kPa, m1 = 1.462): 909.56 ± 1.9 kg/m3
mass density (323.15 K, 79924 kPa, m1 = 0.2335): 837.48 ± 1.8 kg/m3
mass density (323.15 K, 79926 kPa, m1 = 3.368): 1010.05 ± 2 kg/m3
mass density (323.15 K, 79935 kPa, m1 = 0.9499): 880.66 ± 1.8 kg/m3
mass density (323.15 K, 79953 kPa, m1 = 2.272): 953.9 ± 1.9 kg/m3
mass density (323.15 K, 79956 kPa, m1 = 2.833): 983.13 ± 2 kg/m3
mass density (323.15 K, 89924 kPa, m1 = 3.368): 1015.15 ± 2 kg/m3
mass density (323.15 K, 89925 kPa, m1 = 0.9499): 885.81 ± 1.8 kg/m3
mass density (323.15 K, 89926 kPa, m1 = 2.272): 959.13 ± 1.9 kg/m3
mass density (323.15 K, 89956 kPa, m1 = 0.2335): 843.04 ± 1.8 kg/m3
mass density (323.15 K, 89958 kPa, m1 = 2.833): 988.29 ± 2 kg/m3
mass density (323.15 K, 90021 kPa, m1 = 0.5972): 865.14 ± 1.8 kg/m3
mass density (323.15 K, 99678 kPa, m1 = 2.833): 993.25 ± 2 kg/m3
mass density (323.15 K, 99745 kPa, m1 = 0.5972): 869.74 ± 1.9 kg/m3
mass density (323.15 K, 99956 kPa, m1 = 3.368): 1020.21 ± 2.1 kg/m3
mass density (323.15 K, 99957 kPa, m1 = 1.462): 920.17 ± 1.9 kg/m3
mass density (323.15 K, 99965 kPa, m1 = 0.2335): 847.91 ± 1.8 kg/m3
mass density (323.15 K, 99969 kPa, m1 = 0.9499): 890.57 ± 1.9 kg/m3
mass density (323.15 K, 99985 kPa, m1 = 2.272): 964.32 ± 2 kg/m3
mass density (323.16 K, 10058 kPa, m1 = 3.368): 966.55 ± 1.9 kg/m3
mass density (323.16 K, 19945 kPa, m1 = 0.5972): 819.71 ± 1.7 kg/m3
mass density (323.16 K, 19956 kPa, m1 = 2.272): 916.87 ± 1.8 kg/m3
mass density (323.16 K, 20003 kPa, m1 = 1.462): 871.29 ± 1.8 kg/m3
mass density (323.16 K, 29921 kPa, m1 = 0.2335): 805.03 ± 1.6 kg/m3
mass density (323.16 K, 39928 kPa, m1 = 2.833): 960.39 ± 1.9 kg/m3
mass density (323.16 K, 49957 kPa, m1 = 3.368): 993.67 ± 2 kg/m3
mass density (323.16 K, 60002 kPa, m1 = 2.272): 942.94 ± 1.9 kg/m3
mass density (323.16 K, 70004 kPa, m1 = 0.2335): 831.8 ± 1.8 kg/m3
mass density (323.16 K, 89956 kPa, m1 = 1.462): 914.93 ± 1.9 kg/m3
mass density (323.17 K, 39926 kPa, m1 = 0.5972): 834.87 ± 1.7 kg/m3
mass density (323.18 K, 59974 kPa, m1 = 0.5972): 848.31 ± 1.8 kg/m3
